Series [1] deals with human recombinant 5-HT2A receptor (Homo sapiens (Human), UniProt P28223). In words: biochemical. The format is binding. The settings on record: [3H]-Ketanserin 3 nmol/L, Jump-In HEK cell membrane. On the procedure:
Test Example 1: 5-HT2A Receptor Binding Inhibition Test
(Each Experimental Condition)
Cell membrane: 15 μg of Jump-In HEK cell membrane (expressing human recombinant 5-HT2A receptor) per well
Assay buffer: Tris-HCl 50 mmol/L (pH 7.4) containing NaCl 120 mmol/L, MgCl2·6H2O 1 mmol/L, KCl 5 mmol/L, 0.1% BSA and CaCl2 2 mmol/L
Radioactive ligand: [^3H]-Ketanserin with a final concentration of 3 nmol/L
(§1) Non-specific ligand: Serotonin HCl with a final concentration of 500 μmol/L
(§2) The Kd value was calculated when the lot of cell membrane was changed. […] The radioactive ligand solution was serially diluted from 16 nM at a 2-fold ratio and the count was confirmed with a liquid scintillator. […] After that, filtration was performed with Cell harvester (PerkinElmer). The radioactive ligand solution was dispensed into an empty well of the GF/B UniFilter plate at 10 μL/well. […] The GF/B UniFilter plate was allowed to stand overnight at room temperature. […] The Saturation curve was drawn from the measured value, and the Kd value was calculated from the slope of the Scatchard Plot.
(§3) (Binding Test of the Compound According to the Present Invention)
(§4) After that, filtration was performed with Cell harvester (PerkinElmer).

Series [2] addresses human recombinant 5-HT2C receptor (Homo sapiens (Human), UniProt P28335). In words: biochemical. The format is binding. On the procedure: Test Example 2: 5-HT2C Receptor Binding Inhibition Test
(Each experimental condition)
Cell membrane: 0.5 μg of Jump-In HEK cell membrane (expressing human recombinant 5-HT2C receptor) per well
Assay buffer: Tris-HCl 50 mmol/L (pH 7.4) containing NaCl 120 mmol/L, MgCl2·6H2O 1 mmol/L, KCl 5 mmol/L, 0.1% BSA and CaCl2) 2 mmol/L
Radioactive ligand: [^3H]-Mesulergine with a final concentration of 1 nmol/L
as §1, §2, §3, §4

A further series deals with hERG channel (IKr) (Homo sapiens (Human), UniProt Q12809). In words: hERG test (automated whole cell patch clamp, IKr). In kind it is cell-based. As to conditions: CHO cells expressing hERG channel, pH 7.4, compound concentration of 3 μmol/L, read-out: hERG inhibition rate (tail peak current IKr). The text has this:
Test Example 3: hERG Test
For the purpose of assessing risk of an electrocardiogram QT interval prolongation of the compound according to the present invention, effects of the compound according to the present invention on delayed rectifier K^+ current (IKr), which plays an important role in the ventricular repolarization process, was studied using CHO cells expressing human ether-a-go-go related gene (hERG) channel.
After a cell was retained at a membrane potential of −80 mV by whole cell patch clamp method using an automated patch clamp system (QPatch; Sophion Bioscience A/S) and gave a leak potential of −50 mV, IKr induced by depolarization pulse stimulation at +20 mV for 2 seconds, and further, repolarization pulse stimulation at −50 mV for 2 seconds, was recorded. A vehicle, which was the 0.1% dimethyl sulfoxide solution in extracellular solution (NaCl: 145 mmol/L, KCl: 4 mmol/L, CaCl2: 2 mmol/L, MgCl2: 1 mmol/L, glucose:10 mmol/L, HEPES (4-(2-hydroxyethyl)-1-piperazineethanesulfonic acid): 10 mmol/L, pH7.4), or the compound according to the present invention had been dissolved at an objective concentration in the extracellular solution, each of the extracellular solution was applied to the cell at room temperature for 15 minutes or more. From the recording IKr, an absolute value of the tail peak current was measured based on the current value at the resting membrane potential using analysis software (QPatch Assay software; Sophion Bioscience A/S). The % inhibition of the tail peak current after application of the compound according to the present invention relative to the tail peak current after application of the vehicle was calculated, and further correction was performed using the inhibition rate result of the negative control to assess influence of the compound according to the present invention on IKr.
(The hERG channel carries a current that helps repolarise heart muscle cells.)

Setting [3] is: class symbols, read-out: h-5-HT2A Ki.
[4] abbreviates: human serotonin 5-HT2C receptor binding, [3H]-Mesulergine, read-out: h-5-HT2C Ki.
The mark [5] stands for this setting: read-out: human serotonin 5-HT2A receptor binding activity, Ki.
[6] abbreviates: [3H]-Mesulergine 1 nmol/L, Jump-In HEK cell membrane, read-out: human serotonin 5-HT2C receptor binding activity, Ki.

Read-outs that look alike come from different tables or passages of the source.

Results on 23 compounds are retold here after patent publication US12527775B2 (priority 2020, dated 2026).

human recombinant 5-HT2C receptor, sequence (P28335 whole entry, looked up): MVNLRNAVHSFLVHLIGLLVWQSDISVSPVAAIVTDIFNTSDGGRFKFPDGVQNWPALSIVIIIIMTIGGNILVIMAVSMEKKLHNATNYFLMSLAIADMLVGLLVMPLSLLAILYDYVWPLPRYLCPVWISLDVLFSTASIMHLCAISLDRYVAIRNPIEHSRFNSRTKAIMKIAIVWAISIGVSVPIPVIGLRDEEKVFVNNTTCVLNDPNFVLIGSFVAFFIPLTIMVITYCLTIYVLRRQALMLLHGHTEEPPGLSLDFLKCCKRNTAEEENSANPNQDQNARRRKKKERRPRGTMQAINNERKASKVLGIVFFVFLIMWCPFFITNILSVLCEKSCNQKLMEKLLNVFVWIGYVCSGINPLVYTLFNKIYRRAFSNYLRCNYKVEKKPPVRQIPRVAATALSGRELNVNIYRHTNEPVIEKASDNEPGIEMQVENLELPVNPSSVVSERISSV
hERG channel (IKr), sequence (Q12809 whole entry): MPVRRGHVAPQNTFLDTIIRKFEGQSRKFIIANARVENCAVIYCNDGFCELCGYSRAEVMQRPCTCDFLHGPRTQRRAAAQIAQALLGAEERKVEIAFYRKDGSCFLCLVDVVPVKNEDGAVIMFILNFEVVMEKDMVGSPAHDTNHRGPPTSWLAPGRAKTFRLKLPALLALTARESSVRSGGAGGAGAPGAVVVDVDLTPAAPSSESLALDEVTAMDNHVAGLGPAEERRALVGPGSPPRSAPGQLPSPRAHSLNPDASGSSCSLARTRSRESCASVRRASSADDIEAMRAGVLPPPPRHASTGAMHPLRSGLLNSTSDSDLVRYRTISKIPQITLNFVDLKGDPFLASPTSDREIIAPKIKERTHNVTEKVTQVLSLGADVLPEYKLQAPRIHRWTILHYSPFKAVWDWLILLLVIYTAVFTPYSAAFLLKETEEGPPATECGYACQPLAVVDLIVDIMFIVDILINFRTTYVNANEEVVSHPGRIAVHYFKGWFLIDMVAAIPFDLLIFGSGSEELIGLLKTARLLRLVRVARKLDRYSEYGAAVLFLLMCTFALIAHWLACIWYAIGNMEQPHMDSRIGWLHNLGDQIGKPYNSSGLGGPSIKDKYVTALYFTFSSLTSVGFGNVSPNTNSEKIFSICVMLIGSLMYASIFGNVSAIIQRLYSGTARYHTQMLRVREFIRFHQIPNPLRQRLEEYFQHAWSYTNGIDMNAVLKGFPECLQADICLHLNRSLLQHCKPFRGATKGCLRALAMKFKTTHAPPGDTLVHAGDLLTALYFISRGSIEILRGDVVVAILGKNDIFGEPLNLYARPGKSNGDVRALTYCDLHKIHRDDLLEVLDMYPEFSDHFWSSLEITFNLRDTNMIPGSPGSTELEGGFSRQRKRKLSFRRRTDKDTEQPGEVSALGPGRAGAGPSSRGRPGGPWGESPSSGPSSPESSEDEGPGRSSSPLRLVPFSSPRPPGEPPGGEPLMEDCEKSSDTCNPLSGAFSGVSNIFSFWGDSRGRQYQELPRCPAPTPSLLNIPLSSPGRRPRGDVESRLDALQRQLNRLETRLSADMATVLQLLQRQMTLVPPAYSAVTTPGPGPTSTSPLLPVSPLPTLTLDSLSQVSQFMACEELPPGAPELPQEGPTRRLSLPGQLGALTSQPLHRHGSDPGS

Turning to `CC(C)CNc1ccc(CNC(=O)N(Cc2ccc(F)cn2)C2CCN(C)CC2)cc1` [Compound I-112], the Ki in series [1] (setting [3]) and in series [2] (setting [4]) was below 10 nM each time.

Turning to `CN1CCC(N(Cc2ccc(F)cn2)C(=O)NCc2ccc(OC3CC3)cc2)CC1` [Compound I-113], the Ki (usually a dissociation constant, usually derived from enzyme kinetics or from competition with a known ligand) is below 10 nM in series [1] (setting [3]) and 10 to 100 nM in series [2] (setting [4]).

As to `CC(C)COc1ccc(CNC(=O)N(Cc2ccc(F)cn2)[C@H]2CCNC[C@H]2F)cc1` [Compound I-115], the Ki in series [1] (setting [3]) and in series [2] (setting [4]) was below 10 nM each time.

For the compound `CCc1ccc(CNC(=O)N(Cc2ccc(F)cn2)C2CCN(C)CC2)cc1` [Compound I-116], the Ki was 1.45 nM in series [1] (setting [5]) and 12.2 nM in series [2] (setting [6]).

`CN1CCC(N(Cc2ccc(F)cn2)C(=O)NCc2ccc(OCC(F)(F)C(F)F)cc2)CC1` [Compound I-117]: the Ki in series [1] (setting [3]) and in series [2] (setting [4]) was below 10 nM in each case.

Turning to `CC(C)COc1ccc(CNC(=O)N(Cc2ccn(C(F)F)n2)C2CCN(C)CC2)cc1` [Compound I-118], the Ki in series [1] (setting [3]) was below 10 nM; in series [2] (setting [4]) it was 10 to 100 nM.

In the case of `CCCOc1ccc(CNC(=O)N(Cc2ccc(F)cn2)[C@H]2CCNC[C@H]2F)cc1` [Compound I-119], the Ki in series [1] (setting [3]) and in series [2] (setting [4]) was below 10 nM throughout.

In the case of `Cc1ccc(CNC(=O)N(Cc2ccc(F)cn2)[C@H]2CCN(C)CC23CC3)cc1` [Compound I-120], the Ki in series [1] (setting [3]) and in series [2] (setting [4]) was below 10 nM each time.

Turning to `CN1CCC(N(Cc2ccc(F)cn2)C(=O)NCc2ccc(N(C)C)cc2)CC1` [Compound I-121], the Ki in series [1] (setting [3]) was 10 to 100 nM; in series [2] (setting [4]) it was above 100 nM.

Take `CCCOc1ccc(CNC(=O)N(Cc2ccn(C)n2)[C@H]2CCNC[C@H]2F)cc1` [Compound I-122]: the Ki in series [1] (setting [3]) was below 10 nM; in series [2] (setting [4]), 10 to 100 nM.

Regarding `CCCOc1ccc(CNC(=O)N(Cc2cc(C)n(C)n2)[C@H]2CCNC[C@H]2F)cc1` [Compound I-123], the Ki was below 10 nM in series [1] (setting [3]) and 10 to 100 nM in series [2] (setting [4]).

On to `CC(C)COc1ccc(CNC(=O)N(Cc2ccn(C)c2)[C@H]2CCNC[C@H]2F)cc1` [Compound I-124], for which the Ki came out at 0.69 nM in series [1] (setting [5]) and 2.22 nM in series [2] (setting [6]).

Consider `CN1CCC(N(Cc2ccc(F)cn2)C(=O)NCc2ccc(C3CC3)cc2)CC1` [Compound I-125], for which the Ki is below 10 nM in series [1] (setting [3]) and 10 to 100 nM in series [2] (setting [4]).

In the case of `CCCOc1ccc(CNC(=O)N(Cc2cc(C)n(C)n2)[C@H]2CCN(C)CC23CC3)cc1` [Compound I-126], the Ki stood at 1.92 nM in series [1] (setting [5]) and 1.09 nM in series [2] (setting [6]).

Take `CCCOc1ccc(CNC(=O)N(Cc2cc(C)n(C)n2)[C@@H]2CCN(C)CC23CC3)cc1` [Compound I-127]: the Ki in series [1] (setting [3]) and in series [2] (setting [4]) was above 100 nM each time.

For `CC(C)CNc1ccc(CNC(=O)N(Cc2ccc(F)cn2)[C@H]2CCNC[C@H]2F)cc1` [Compound I-129], the Ki amounted to 0.85 nM in series [1] (setting [5]) and 1.51 nM in series [2] (setting [6]). Further, on hERG channel (IKr), the inhibition (commonly the percentage by which the read-out fell short of the control) at 3 μmol/L worked out at 31.4%.

For `COCc1ccc(CNC(=O)N(Cc2ccc(C)cn2)C2CCN(C)CC2)cc1` [Compound I-130], the Ki in series [1] (setting [5]) came out at 15.3 nM; in series [2] (setting [6]) it was 348 nM.

Take `Cc1cc(CN(C(=O)NCc2ccc(OCC(C)C)cc2)[C@H]2CCNC[C@H]2F)nn1C` [Compound I-133]: the inhibition at 3 μmol/L at hERG channel (IKr) turned out to be 6.6%.

On to `CCCOc1ccc(CNC(=O)N(Cc2ccn(C)c2)[C@H]2CCNC[C@H]2F)cc1` [Compound I-134], for which the Ki in series [1] (setting [5]) amounted to 0.475 nM; in series [2] (setting [6]) it was 3.2 nM. Also, the inhibition at 3 μmol/L at hERG channel (IKr) came to 31.2%.

Consider `CCCOc1ccc(CNC(=O)N(Cc2cc(C)n(C)n2)[C@H]2CCN(C)C[C@H]2F)cc1` [Compound I-139], for which the Ki in series [1] (setting [5]) was 2.93 nM; in series [2] (setting [6]), 11.1 nM. Moreover, the inhibition at 3 μmol/L at hERG channel (IKr) came out at 14.2%.

Consider `CCCOc1ccc(CNC(=O)N(Cc2ccn(C)c2)[C@H]2CCN(C)C[C@H]2F)cc1` [Compound I-141], for which the inhibition at 3 μmol/L on hERG channel (IKr) was 49.3%.

As for `CC(C)COc1ccc(CNC(=O)N(Cc2cc(CF)n(C)n2)[C@H]2CCN(C)C[C@H]2F)cc1` [Compound I-146], the Ki is 1.94 nM in series [1] (setting [5]) and 4.96 nM in series [2] (setting [6]).

Turning to `CC(C)CN(C)c1ccc(CNC(=O)N(Cc2ccc(F)cn2)[C@H]2CCN(C)C[C@H]2F)cc1` [Compound I-147], the Ki came to 0.758 nM in series [1] (setting [5]) and 2.12 nM in series [2] (setting [6]).
